Data from patent US11542304B2, “Multimeric bicyclic peptide ligands” (BicycleTx Limited, priority 2018, dated 2023).
Starred links: 1 amine or outer side, 2 acyl side, 3 side chain; linkers in the order of their positions; H or OH if unused. Positions of bridges follow the written chain, without caps; N, C: chain ends. Non-standard residues stand in square brackets, D forms with d. Chains are numbered I, II in the order given. X3 = O=C(CCOCCN(CCOCCC(=O)NCCOCCOCCOCCOCCOCCOCCOCCOCCOCCOCCn1nnc2c1CCC1C(CC2)C1COC(=O)[*:2])CCOCCC(=O)NCCOCCOCCOCCOCCOCCOCCOCCOCCOCCOCCn1nnc2c1CCC1C(CC2)C1COC(=O)[*:3])NCCOCCOCCOCCOCCOCCOCCOCCOCCOCCOCCn1nnc2c1CCC1C(CC2)C1COC(=O)[*:1]; X1 = O=C(CCOCCN(CCOCCC(=O)NCCOCCOCCOCCOCCOCCOCCOCCOCCOCCOCCn1cc(CCC(=O)[*:2])nn1)CCOCCC(=O)NCCOCCOCCOCCOCCOCCOCCOCCOCCOCCOCCn1cc(CCC(=O)[*:3])nn1)NCCOCCOCCOCCOCCOCCOCCOCCOCCOCCOCCn1cc(CCC(=O)[*:1])nn1; TATA = O=C(CC[*:1])N1CN(C(=O)CC[*:2])CN(C(=O)CC[*:3])C1; Nle = CCCC[C@H](N)C(=O)O

Columns and labels:
[1] = clinical testing, cited from earlier work
[2] = Pharmacokinetics of Bicycle multimers in CD-1 mice; conditions: 5 mg/kg IV, male CD-1 mice; FIGS. 5A and 5B
Description: Male CD-1 mice were dosed with 5 mg/kg of each Bicycle multimer formulated in 25 mM Histidine HCl, 10% sucrose pH 7 via tail vein injection. Serial bleeding (about 80 μL blood/time point) was performed via submandibular or saphenous vein at each time point. All blood samples were immediately transferred into prechilled microcentrifuge tubes containing 2 μL K2-EDTA (0.5M) as anti-coagulant and placed on wet ice. Blood samples were immediately processed for plasma by centrifugation at approximately 4° C., 3000 g. The precipitant including internal standard was immediately added into the plasma, mixed well and centrifuged at 12,000 rpm, 4° C. for 10 minutes. The supernatant was transferred into pre-labeled polypropylene microcentrifuge tubes, and then quick-frozen over dry ice. The samples were stored at 70° C. or below as needed until analysis. 7.5 μL of the supernatant samples were directly injected for LC-MS/MS analysis using an Orbitrap Q Exactive in positive ion mode to determine the concentrations of Bicycle multimer. Plasma concentration versus time data were analyzed by non-compartmental approaches using the Phoenix WinNonlin 6.3 software program. C0, Cl, Vdss, T1/2, AUC(0-last), AUC(0-inf), MRT(0-last), MRT(0-inf) and graphs of plasma concentration versus time profile were reported.

CD137 = CD137 (Homo sapiens, UniProt Q07011); experiment: CD137 Promega reporter cell activity assay (NF-κB luciferase in Jurkat cells); conditions: for Average Relative Fold Induction relative to CD137L: Average fold induction for CD137L = 4.0; for Average Fold EC50 Improvement relative to CD137L: Average EC50 for CD137L = 14.2 nM
Chain of CD137 (Q07011 24-255): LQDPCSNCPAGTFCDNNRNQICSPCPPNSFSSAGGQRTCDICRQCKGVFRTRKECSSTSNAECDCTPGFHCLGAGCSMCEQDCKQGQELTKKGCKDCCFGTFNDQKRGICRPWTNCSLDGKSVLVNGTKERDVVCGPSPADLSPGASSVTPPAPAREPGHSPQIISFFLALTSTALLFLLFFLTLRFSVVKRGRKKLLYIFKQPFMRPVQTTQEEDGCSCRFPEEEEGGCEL

Molecule	Average Relative Fold Induction relative to CD137L (CD137)	Average Fold EC50 Improvement relative to CD137L (CD137)	other results
utomilumab	–	–	dose up to which hepatotoxicity was not observed ([1]; solid tumors): up to 5 mg/kg; single agent activity [1]: little or no single agent activity
I: Ac-ACIEKGQYCFADPY[Nle]CA-NH2 / II: Ac-ACIEKGQYCFADPY[Nle]CA-NH2 / III: Ac-ACIEKGQYCFADPY[Nle]CA-NH2 (linker I:2-I:9-I:16, II:2-II:9-II:16, III:2-III:9-III:16 via TATA; linker I:5-II:5-III:5 via X1) [BCY7835]	1.04	–	systemic elimination (plasma concentration after IV dosing) [2]: retain the property of rapid systemic elimination
urelumab	–	–	doses at which hepatoxicity was observed [1]: ≥ 1 mg/kg; single agent activity [1]: single agent, partial responses in melanoma
CC[C@H](C)[C@@H]1NC(=O)[C@@H](NC(=O)[C@H](C)NC(C)=O)CSCCC(=O)N2CN3CN(C2)C(=O)CCSC[C@H](NC(=O)[C@H](Cc2ccc(O)cc2)NC(=O)[C@H](CCC(N)=O)NC(=O)CNC(=O)[C@H](CCC(=O)O)NC(=O)[C@H](CCC(=O)O)NC1=O)C(=O)N[C@@H](Cc1ccccc1)C(=O)N[C@@H](C)C(=O)N[C@@H](CC(=O)O)C(=O)N1CCC[C@H]1C(=O)N[C@@H](Cc1ccc(O)cc1)C(=O)N[C@@H](CCCCNC(=O)OCC1C2CCc4nnn(CCOCCOCCOCCOCCOCCOCCOCCOCCOCCOCCNC(=O)CCOCC(COCCC(=O)NCCOCCOCCOCCOCCOCCOCCOCCOCCOCCOCCn5nnc6c5CCC5C(CC6)C5COC(=O)NCCCC[C@@H]5NC(=O)[C@H](Cc6ccc(O)cc6)NC(=O)[C@@H]6CCCN6C(=O)[C@H](CC(=O)O)NC(=O)[C@H](C)NC(=O)[C@H](Cc6ccccc6)NC(=O)[C@@H]6CSCCC(=O)N7CN(CN(C7)C(=O)CCSC[C@@H](C(=O)N[C@@H](C)C(N)=O)NC5=O)C(=O)CCSC[C@H](NC(=O)[C@H](C)NC(C)=O)C(=O)N[C@@H]([C@@H](C)CC)C(=O)N[C@@H](CCC(=O)O)C(=O)N[C@@H](CCC(=O)O)C(=O)NCC(=O)N[C@@H](CCC(N)=O)C(=O)N[C@@H](Cc5ccc(O)cc5)C(=O)N6)(COCCC(=O)NCCOCCOCCOCCOCCOCCOCCOCCOCCOCCOCCn5nnc6c5CCC5C(CC6)C5COC(=O)NCCCC[C@@H]5NC(=O)[C@H](Cc6ccc(O)cc6)NC(=O)[C@@H]6CCCN6C(=O)[C@H](CC(=O)O)NC(=O)[C@H](C)NC(=O)[C@H](Cc6ccccc6)NC(=O)[C@@H]6CSCCC(=O)N7CN(CN(C7)C(=O)CCSC[C@@H](C(=O)N[C@@H](C)C(N)=O)NC5=O)C(=O)CCSC[C@H](NC(=O)[C@H](C)NC(C)=O)C(=O)N[C@@H]([C@@H](C)CC)C(=O)N[C@@H](CCC(=O)O)C(=O)N[C@@H](CCC(=O)O)C(=O)NCC(=O)N[C@@H](CCC(N)=O)C(=O)N[C@@H](Cc5ccc(O)cc5)C(=O)N6)COCCC(=O)NCCOCCOCCOCCOCCOCCOCCOCCOCCOCCOCCn5nnc6c5CCC5C(CC6)C5COC(=O)NCCCC[C@@H]5NC(=O)[C@H](Cc6ccc(O)cc6)NC(=O)[C@@H]6CCCN6C(=O)[C@H](CC(=O)O)NC(=O)[C@H](C)NC(=O)[C@H](Cc6ccccc6)NC(=O)[C@@H]6CSCCC(=O)N7CN(CN(C7)C(=O)CCSC[C@@H](C(=O)N[C@@H](C)C(N)=O)NC5=O)C(=O)CCSC[C@H](NC(=O)[C@H](C)NC(C)=O)C(=O)N[C@@H]([C@@H](C)CC)C(=O)N[C@@H](CCC(=O)O)C(=O)N[C@@H](CCC(=O)O)C(=O)NCC(=O)N[C@@H](CCC(N)=O)C(=O)N[C@@H](Cc5ccc(O)cc5)C(=O)N6)c4CCC21)C(=O)N[C@H](C(=O)N[C@@H](C)C(N)=O)CSCCC3=O (stereo partly shown) [BCY8108]	0.79	34.03	–
ACIEEGQYCFADPYMCA [BCY592, reference compound]	–	–	CD137 agonism / activation in reporter cells (in words) (CD137; FIGS. 1 to 3 and 15): no detectable activity
I: Ac-ACIEEGKYCFADPY[Nle]CA-NH2 / II: Ac-ACIEEGKYCFADPY[Nle]CA-NH2 / III: Ac-ACIEEGKYCFADPY[Nle]CA-NH2 (linker I:2-I:9-I:16, II:2-II:9-II:16, III:2-III:9-III:16 via TATA; linker I:7-II:7-III:7 via X3) [BCY8151]	0.49	213.05	–
CCCC[C@@H]1NC(=O)[C@H](Cc2ccc(O)cc2)NC(=O)[C@@H]2CCCN2C(=O)[C@H](CC(=O)O)NC(=O)[C@H](C)NC(=O)[C@H](Cc2ccccc2)NC(=O)[C@@H]2CSCCC(=O)N3CN(CN(C3)C(=O)CCSC[C@@H](C(=O)N[C@@H](C)C(N)=O)NC1=O)C(=O)CCSC[C@H](NC(=O)[C@H](C)NC(C)=O)C(=O)N[C@@H]([C@@H](C)CC)C(=O)N[C@@H](CCC(=O)O)C(=O)N[C@@H](CCCCNC(=O)OCC1C3CCc4nnn(CCOCCOCCOCCOCCOCCOCCOCCOCCOCCOCCNC(=O)CCOCC(COCCC(=O)NCCOCCOCCOCCOCCOCCOCCOCCOCCOCCOCCn5nnc6c5CCC5C(CC6)C5COC(=O)NCCCC[C@@H]5NC(=O)[C@H](CCC(=O)O)NC(=O)[C@H]([C@@H](C)CC)NC(=O)[C@@H](NC(=O)[C@H](C)NC(C)=O)CSCCC(=O)N6CN7CN(C6)C(=O)CCSC[C@H](NC(=O)[C@H](Cc6ccc(O)cc6)NC(=O)[C@H](CCC(N)=O)NC(=O)CNC5=O)C(=O)N[C@@H](Cc5ccccc5)C(=O)N[C@@H](C)C(=O)N[C@@H](CC(=O)O)C(=O)N5CCC[C@H]5C(=O)N[C@@H](Cc5ccc(O)cc5)C(=O)N[C@@H](CCCC)C(=O)N[C@H](C(=O)N[C@@H](C)C(N)=O)CSCCC7=O)(COCCC(=O)NCCOCCOCCOCCOCCOCCOCCOCCOCCOCCOCCn5nnc6c5CCC5C(CC6)C5COC(=O)NCCCC[C@@H]5NC(=O)[C@H](CCC(=O)O)NC(=O)[C@H]([C@@H](C)CC)NC(=O)[C@@H](NC(=O)[C@H](C)NC(C)=O)CSCCC(=O)N6CN7CN(C6)C(=O)CCSC[C@H](NC(=O)[C@H](Cc6ccc(O)cc6)NC(=O)[C@H](CCC(N)=O)NC(=O)CNC5=O)C(=O)N[C@@H](Cc5ccccc5)C(=O)N[C@@H](C)C(=O)N[C@@H](CC(=O)O)C(=O)N5CCC[C@H]5C(=O)N[C@@H](Cc5ccc(O)cc5)C(=O)N[C@@H](CCCC)C(=O)N[C@H](C(=O)N[C@@H](C)C(N)=O)CSCCC7=O)COCCC(=O)NCCOCCOCCOCCOCCOCCOCCOCCOCCOCCOCCn5nnc6c5CCC5C(CC6)C5COC(=O)NCCCC[C@@H]5NC(=O)[C@H](CCC(=O)O)NC(=O)[C@H]([C@@H](C)CC)NC(=O)[C@@H](NC(=O)[C@H](C)NC(C)=O)CSCCC(=O)N6CN7CN(C6)C(=O)CCSC[C@H](NC(=O)[C@H](Cc6ccc(O)cc6)NC(=O)[C@H](CCC(N)=O)NC(=O)CNC5=O)C(=O)N[C@@H](Cc5ccccc5)C(=O)N[C@@H](C)C(=O)N[C@@H](CC(=O)O)C(=O)N5CCC[C@H]5C(=O)N[C@@H](Cc5ccc(O)cc5)C(=O)N[C@@H](CCCC)C(=O)N[C@H](C(=O)N[C@@H](C)C(N)=O)CSCCC7=O)c4CCC31)C(=O)NCC(=O)N[C@@H](CCC(N)=O)C(=O)N[C@@H](Cc1ccc(O)cc1)C(=O)N2 (stereo partly shown) [BCY8150]	0.77	4.14	–
